How the values were obtained:
[1] = target: T1, CDK3/cyclinE(h) (Homo sapiens, UniProt Q00526); assay: Kinase panel; assay type: biochemical; details: read-out: % Residual Activity
T1 construct: purchased Eurofins (KinaseProfiler)
Description: (§1) Kinome-wide selectivity of rilpivirine was measured using the kinase screening and profiling service of Eurofins Scientific (Le bois l’Evêque 86600. Celle-Lévescault, France) and Ki values were determined using radioisotope-based assays by Reaction Biology Corporation (Malvern, PA, USA). The experimental details of Eurofin Scientific and Reaction Biology services for relevant assays are available at https://www.eurofinsdiscoveryservices.com/services/in-Vitro-assays/kinases/kinase-profiler (accessed on 7 July 2021) and https://www.reactionbiology.com (accessed on 7 July 2021), respectively. Ki values were estimated from the corresponding IC50 values using the Cheng–Prusoff equation [21] and the Km (ATP) of individual kinase was used for IC50 determination.

[2] = target: T2, CLIK1(h) (Homo sapiens, UniProt Q8TDR2); assay: Kinase panel; assay type: biochemical; details: read-out: % Residual Activity
T2 construct: purchased Eurofins (KinaseProfiler)
Description: as §1

[3] = target: T3, CLK2(h) (Homo sapiens, UniProt P49760); assay: Kinase panel; assay type: biochemical; details: read-out: % Residual Activity
T3 construct: purchased Eurofins (KinaseProfiler)
Description: as §1

[4] = target: T4, CaMKIIγ(h) (Homo sapiens, UniProt Q13555); assay: Kinase panel; assay type: biochemical; details: read-out: % Residual Activity
T4 construct: purchased Eurofins (KinaseProfiler)
T4 sequence (Q13555 whole entry): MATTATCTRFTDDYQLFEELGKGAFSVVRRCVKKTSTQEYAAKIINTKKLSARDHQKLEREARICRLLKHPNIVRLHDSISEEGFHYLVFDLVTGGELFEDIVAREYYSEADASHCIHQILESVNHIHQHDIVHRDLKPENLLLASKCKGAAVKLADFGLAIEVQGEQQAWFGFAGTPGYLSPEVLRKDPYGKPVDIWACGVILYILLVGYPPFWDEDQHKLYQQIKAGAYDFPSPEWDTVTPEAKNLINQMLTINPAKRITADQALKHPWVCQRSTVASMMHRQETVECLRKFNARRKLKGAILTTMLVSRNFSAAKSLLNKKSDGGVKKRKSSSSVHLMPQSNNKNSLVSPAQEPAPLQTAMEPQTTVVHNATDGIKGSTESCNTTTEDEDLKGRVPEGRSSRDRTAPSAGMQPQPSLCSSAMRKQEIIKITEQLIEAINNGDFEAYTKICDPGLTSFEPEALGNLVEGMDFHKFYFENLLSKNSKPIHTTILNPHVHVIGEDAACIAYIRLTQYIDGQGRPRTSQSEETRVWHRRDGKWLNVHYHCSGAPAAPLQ
Description: as §1

[5] = target: T5, Fer(h) (Homo sapiens, UniProt P16591); assay: Kinase panel; assay type: biochemical; details: read-out: % Residual Activity
T5 construct: purchased Eurofins (KinaseProfiler)
T5 sequence (P16591 whole entry): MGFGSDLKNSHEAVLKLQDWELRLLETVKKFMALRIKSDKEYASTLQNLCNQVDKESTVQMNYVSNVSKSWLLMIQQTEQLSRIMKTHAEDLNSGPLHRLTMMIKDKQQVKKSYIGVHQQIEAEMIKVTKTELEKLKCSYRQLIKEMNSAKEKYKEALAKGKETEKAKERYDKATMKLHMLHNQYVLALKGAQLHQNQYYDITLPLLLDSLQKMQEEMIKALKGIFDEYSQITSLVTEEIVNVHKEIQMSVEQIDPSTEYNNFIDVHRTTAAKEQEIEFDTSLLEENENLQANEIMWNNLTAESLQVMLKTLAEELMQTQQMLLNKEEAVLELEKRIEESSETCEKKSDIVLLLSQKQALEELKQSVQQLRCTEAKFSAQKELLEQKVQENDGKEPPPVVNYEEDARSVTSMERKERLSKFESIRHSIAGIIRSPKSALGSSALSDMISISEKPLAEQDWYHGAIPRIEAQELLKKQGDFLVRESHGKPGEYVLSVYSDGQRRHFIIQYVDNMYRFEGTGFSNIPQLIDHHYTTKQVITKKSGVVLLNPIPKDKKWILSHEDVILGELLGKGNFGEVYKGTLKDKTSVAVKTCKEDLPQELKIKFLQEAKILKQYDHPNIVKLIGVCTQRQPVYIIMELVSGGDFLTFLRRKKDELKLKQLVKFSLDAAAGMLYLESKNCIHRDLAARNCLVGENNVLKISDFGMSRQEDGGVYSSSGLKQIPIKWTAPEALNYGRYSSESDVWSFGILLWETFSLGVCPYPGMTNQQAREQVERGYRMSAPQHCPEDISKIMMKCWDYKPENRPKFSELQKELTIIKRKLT
Description: as §1

[6] = target: T6, GSK3β(h) (Homo sapiens, UniProt P49841); assay: Kinase panel; assay type: biochemical; details: read-out: % Residual Activity
T6 construct: purchased Eurofins (KinaseProfiler)
Description: as §1

[7] = target: T7, HIPK3(h) (Homo sapiens, UniProt Q9H422); assay: Kinase panel; assay type: biochemical; details: read-out: % Residual Activity
T7 construct: purchased Eurofins (KinaseProfiler)
Description: as §1

[8] = target: T8, JNK3(h) (Homo sapiens, UniProt P53779); assay: Kinase panel; assay type: biochemical; details: read-out: % Residual Activity
T8 construct: purchased Eurofins (KinaseProfiler)
Description: as §1

[9] = target: T9, Lyn(h) (Homo sapiens, UniProt P07948); assay: Kinase panel; assay type: biochemical
T9 construct: purchased Eurofins (KinaseProfiler)
T9 sequence (P07948 whole entry): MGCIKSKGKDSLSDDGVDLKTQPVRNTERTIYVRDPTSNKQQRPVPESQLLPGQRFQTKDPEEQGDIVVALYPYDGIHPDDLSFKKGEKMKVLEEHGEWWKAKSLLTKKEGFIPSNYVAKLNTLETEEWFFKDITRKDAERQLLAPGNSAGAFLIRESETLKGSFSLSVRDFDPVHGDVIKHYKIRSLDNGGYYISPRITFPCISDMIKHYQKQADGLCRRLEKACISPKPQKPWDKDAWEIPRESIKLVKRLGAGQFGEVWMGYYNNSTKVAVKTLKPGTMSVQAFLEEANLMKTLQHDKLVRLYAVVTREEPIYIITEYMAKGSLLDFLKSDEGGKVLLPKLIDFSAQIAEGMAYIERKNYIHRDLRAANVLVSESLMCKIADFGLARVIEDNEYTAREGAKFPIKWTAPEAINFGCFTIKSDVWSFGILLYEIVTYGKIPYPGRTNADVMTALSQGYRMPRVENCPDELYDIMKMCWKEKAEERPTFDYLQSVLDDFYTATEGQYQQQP
Description: as §1

[10] = target: T10, MARK1(h) (Homo sapiens, UniProt Q9P0L2); assay: Kinase panel; assay type: biochemical; details: read-out: % Residual Activity
T10 construct: purchased Eurofins (KinaseProfiler)
Description: as §1

[11] = target: T11, NEK4(h) (Homo sapiens, UniProt P51957); assay: Kinase panel; assay type: biochemical; details: read-out: % Residual Activity
T11 construct: purchased Eurofins (KinaseProfiler)
T11 sequence (P51957 whole entry): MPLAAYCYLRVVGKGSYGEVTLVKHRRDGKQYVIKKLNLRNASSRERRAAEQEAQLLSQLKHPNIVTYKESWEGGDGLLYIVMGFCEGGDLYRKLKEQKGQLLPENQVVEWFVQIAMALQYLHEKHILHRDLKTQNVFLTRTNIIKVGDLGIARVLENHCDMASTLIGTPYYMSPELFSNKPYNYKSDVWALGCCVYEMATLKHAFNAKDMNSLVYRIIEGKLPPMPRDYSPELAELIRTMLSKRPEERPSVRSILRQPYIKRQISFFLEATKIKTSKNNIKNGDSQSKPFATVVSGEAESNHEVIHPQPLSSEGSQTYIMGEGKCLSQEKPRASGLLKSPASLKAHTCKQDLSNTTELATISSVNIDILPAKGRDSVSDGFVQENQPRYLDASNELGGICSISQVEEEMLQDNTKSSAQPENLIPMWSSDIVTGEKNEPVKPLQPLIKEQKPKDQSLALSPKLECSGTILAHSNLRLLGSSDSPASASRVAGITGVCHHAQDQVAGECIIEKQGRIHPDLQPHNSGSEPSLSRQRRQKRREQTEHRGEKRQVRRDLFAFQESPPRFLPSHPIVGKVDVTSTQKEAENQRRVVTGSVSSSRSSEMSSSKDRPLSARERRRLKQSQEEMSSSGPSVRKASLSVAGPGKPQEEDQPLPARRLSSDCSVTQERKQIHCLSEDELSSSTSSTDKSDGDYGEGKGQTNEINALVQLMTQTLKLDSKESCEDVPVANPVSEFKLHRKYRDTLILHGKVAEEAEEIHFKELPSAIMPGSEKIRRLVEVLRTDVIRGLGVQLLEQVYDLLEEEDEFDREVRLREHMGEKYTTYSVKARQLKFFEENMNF
Description: as §1

[12] = target: T12, PDHK2(h) (Homo sapiens, UniProt Q15119); assay: Kinase panel; assay type: biochemical; details: read-out: % Residual Activity
T12 construct: purchased Eurofins (KinaseProfiler)
Description: as §1

[13] = target: T13, PRK2(h) (Homo sapiens, UniProt Q16513); assay: Kinase panel; assay type: biochemical; details: read-out: % Residual Activity
T13 construct: purchased Eurofins (KinaseProfiler)
T13 sequence (Q16513 whole entry): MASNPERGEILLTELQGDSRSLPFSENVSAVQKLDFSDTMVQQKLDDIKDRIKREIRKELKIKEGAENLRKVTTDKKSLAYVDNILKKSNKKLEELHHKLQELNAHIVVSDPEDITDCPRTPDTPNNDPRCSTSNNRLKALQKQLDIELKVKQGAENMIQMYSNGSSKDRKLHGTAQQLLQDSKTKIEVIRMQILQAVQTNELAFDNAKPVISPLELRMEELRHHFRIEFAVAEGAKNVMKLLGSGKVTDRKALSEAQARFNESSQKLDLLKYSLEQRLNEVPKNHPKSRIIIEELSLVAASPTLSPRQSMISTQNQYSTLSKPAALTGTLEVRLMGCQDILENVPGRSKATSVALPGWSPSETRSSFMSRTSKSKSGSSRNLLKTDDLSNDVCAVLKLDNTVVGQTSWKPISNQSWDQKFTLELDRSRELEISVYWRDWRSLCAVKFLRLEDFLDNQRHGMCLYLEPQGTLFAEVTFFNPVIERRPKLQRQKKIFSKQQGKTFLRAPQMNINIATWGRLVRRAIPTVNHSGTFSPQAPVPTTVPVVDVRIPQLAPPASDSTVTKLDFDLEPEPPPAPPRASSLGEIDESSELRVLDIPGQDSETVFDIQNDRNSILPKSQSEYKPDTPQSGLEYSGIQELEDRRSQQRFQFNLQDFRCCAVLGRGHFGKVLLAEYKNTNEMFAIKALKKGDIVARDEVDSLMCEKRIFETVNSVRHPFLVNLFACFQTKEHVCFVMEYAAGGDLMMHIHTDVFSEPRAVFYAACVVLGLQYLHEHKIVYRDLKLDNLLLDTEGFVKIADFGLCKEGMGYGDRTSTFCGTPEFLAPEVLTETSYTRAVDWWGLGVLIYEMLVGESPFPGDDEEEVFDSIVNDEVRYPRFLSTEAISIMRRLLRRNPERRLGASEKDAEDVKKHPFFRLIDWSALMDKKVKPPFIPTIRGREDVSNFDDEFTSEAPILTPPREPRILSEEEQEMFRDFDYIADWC
Description: as §1

[14] = target: T14, PhKγ2(h) (Homo sapiens, UniProt P15735); assay: Kinase panel; assay type: biochemical; details: read-out: % Residual Activity
T14 construct: purchased Eurofins (KinaseProfiler)
Description: as §1

[15] = target: T15, STK33(h) (Homo sapiens, UniProt Q9BYT3); assay: Kinase panel; assay type: biochemical; details: read-out: % Residual Activity
T15 construct: purchased Eurofins (KinaseProfiler)
Description: as §1

[16] = target: T16, TGFBR1(h) (Homo sapiens, UniProt P36897); assay: Kinase panel; assay type: biochemical; details: read-out: % Residual Activity
T16 construct: purchased Eurofins (KinaseProfiler)
Description: as §1

[17] = target: T17, TSSK2(h) (Homo sapiens, UniProt Q96PF2); assay: Kinase panel; assay type: biochemical; details: read-out: % Residual Activity
T17 construct: purchased Eurofins (KinaseProfiler)
Description: as §1

[18] = target: T18, TTBK1(h) (Homo sapiens, UniProt Q5TCY1); assay: Kinase panel; assay type: biochemical; details: read-out: % Residual Activity
T18 construct: purchased Eurofins (KinaseProfiler)
T18 sequence (Q5TCY1 whole entry): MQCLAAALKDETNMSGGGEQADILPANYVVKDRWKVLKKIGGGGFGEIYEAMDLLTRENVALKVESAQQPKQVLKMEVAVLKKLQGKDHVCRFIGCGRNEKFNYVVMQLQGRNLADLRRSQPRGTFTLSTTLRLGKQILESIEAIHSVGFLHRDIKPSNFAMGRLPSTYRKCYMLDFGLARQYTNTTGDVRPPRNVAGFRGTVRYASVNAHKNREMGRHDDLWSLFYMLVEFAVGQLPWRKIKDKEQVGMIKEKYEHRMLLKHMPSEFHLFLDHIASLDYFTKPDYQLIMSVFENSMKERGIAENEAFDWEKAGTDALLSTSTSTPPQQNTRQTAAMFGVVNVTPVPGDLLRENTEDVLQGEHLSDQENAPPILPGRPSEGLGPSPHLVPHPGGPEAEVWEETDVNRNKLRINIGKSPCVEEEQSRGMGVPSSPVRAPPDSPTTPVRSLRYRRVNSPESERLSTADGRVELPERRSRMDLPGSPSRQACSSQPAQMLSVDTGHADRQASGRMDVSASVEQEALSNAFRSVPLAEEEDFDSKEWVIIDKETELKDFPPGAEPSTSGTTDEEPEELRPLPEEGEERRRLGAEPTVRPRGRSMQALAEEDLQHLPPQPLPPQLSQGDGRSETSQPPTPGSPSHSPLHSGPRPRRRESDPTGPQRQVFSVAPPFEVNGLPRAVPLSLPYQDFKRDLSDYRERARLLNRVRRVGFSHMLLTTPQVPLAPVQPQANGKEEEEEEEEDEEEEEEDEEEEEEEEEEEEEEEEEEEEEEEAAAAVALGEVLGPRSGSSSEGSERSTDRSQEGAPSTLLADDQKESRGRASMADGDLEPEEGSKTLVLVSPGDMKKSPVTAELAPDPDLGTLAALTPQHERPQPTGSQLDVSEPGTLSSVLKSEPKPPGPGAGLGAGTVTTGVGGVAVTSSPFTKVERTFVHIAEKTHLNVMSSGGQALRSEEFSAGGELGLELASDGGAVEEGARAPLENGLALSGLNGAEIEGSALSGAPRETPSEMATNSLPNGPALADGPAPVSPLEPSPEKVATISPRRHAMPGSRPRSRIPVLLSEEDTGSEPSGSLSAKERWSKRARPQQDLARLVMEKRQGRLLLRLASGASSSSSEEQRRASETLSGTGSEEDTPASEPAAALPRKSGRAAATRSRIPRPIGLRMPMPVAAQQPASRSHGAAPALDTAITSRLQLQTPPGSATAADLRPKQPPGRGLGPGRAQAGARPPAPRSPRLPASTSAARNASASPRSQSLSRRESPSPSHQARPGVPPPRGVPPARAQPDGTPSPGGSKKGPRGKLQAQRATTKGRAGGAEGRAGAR
Description: as §1

[19] = target: T19, ULK1(h) (Homo sapiens, UniProt O75385); assay: Kinase panel; assay type: biochemical; details: read-out: % Residual Activity
T19 construct: purchased Eurofins (KinaseProfiler)
Description: as §1

[20] = target: T20, VRK1(h) (Homo sapiens, UniProt Q99986); assay: Kinase panel; assay type: biochemical; details: read-out: % Residual Activity
T20 construct: purchased Eurofins (KinaseProfiler)
Description: as §1

[21] = system: K-562 cells; assay: Resazurin cell viability assay; assay type: cell-based, human; details: Homo sapiens
Description: Cell viability was determined by a resazurin-based assay as described previously. Briefly, 5 × 10^3 cells/well were seeded into 96-well plates (Corning Inc., Corning, NY, USA) in 180 µL of RPMI 1640 medium and incubated overnight at 37 °C with 5% CO2. Next day, cells were treated with rilpivirine after serially diluted (1:2 dilution for final concentrations ranging from 0.625 µM to 40 µM) or DMSO (0.1%) for specified time periods (24, 48, or 72 h). At the end of the treatment period, 20 µL of resazurin (0.1 mg/mL in PBS) was added per well and incubated for further 4 h. Fluorescence intensities were recorded at 570 nm (excitation)/585 nm (emission) using an EnVision® multilabel plate reader (PerkinElmer, MA, USA). Drug concentrations required for cell viability reduction by 50% (GI50) compared with untreated (DMSO vehicle-treated only) control were determined by a non-linear regression model using GraphPad Prism software version 7.02 (La Jolla, CA, USA).

[22] = system: HL-60 cells; assay: Cell cycle analysis (PI, flow cytometry); assay type: cell-based, human; details: for G2-M cells: 24 h
Description: (§2) To determine the effect of rilpivirine on cell-cycle distribution a flow cytometry-based analysis was performed after staining the untreated and treated cells with propidium iodide (PI) solution [22]. Briefly, 6 × 10^4 cells/well were seeded in 3 mL of medium per well in 6-well plates. After overnight incubation at 37 °C in 5% CO2, the cells were incubated with the test compounds for specified time points. The medium-containing cells were then taken out from the wells and transferred to FACS tubes. Cells were then pelleted by centrifugation at 300 g for 5 min. Afterward, cells were fixed by using 70% (v/v) ice-cold ethanol for 15 min and then again pelleted by centrifugation (300 g for 5 min). Finally, the cells were incubated with 200 µL of PI staining solution (50 μg/mL PI, 0.1% sodium citrate, 0.1 mg/mL RNase A, and 0.1% Triton X-100) for 1.5 h at room temperature in the dark. After the incubation period, the cells were analysed using a CytoFLEX flow cytometer (Beckman Coulter Inc., Brea, CA, USA). CytExpert software version 2.1 was used for data analysis and graph preparation.

[23] = system: K-562 cells; assay: Cell cycle analysis (PI, flow cytometry); assay type: cell-based, human; details: 20 μM, 24 h
Description: as §2

[24] = system: KG1 cells; assay: Cell cycle analysis (PI, flow cytometry); assay type: cell-based, human; details: 10 µM or 20 µM, 24 h
Description: as §2

[25] = system: NB4 cells; assay: Cell cycle analysis (PI, flow cytometry); assay type: cell-based, human; details: 20 μM, 24 h
Description: as §2

[26] = system: U-937 cells; assay: Cell cycle analysis (PI, flow cytometry); assay type: cell-based, human; details: 20 μM, 24 h
Description: as §2

## Cc1cc(/C=C/C#N)cc(C)c1Nc1ccnc(Nc2ccc(C#N)cc2)n1 [rilpivirine, (E)-4-((4-((4-(2-cyanoethenyl)-2,6-dimethylphenyl)amino)pyrimidin-2-yl)amino)benzonitrile]
[1]
  remaining activity at 1 µM: 90%
[2]
  remaining activity at 1 µM: 85%
[3]
  remaining activity at 1 µM: 60%
[4]
  remaining activity at 1 µM: 58%
[5]
  remaining activity at 1 µM: 91%
[6]
  remaining activity at 1 µM: 84%
[7]
  remaining activity at 1 µM: 92%
[8]
  remaining activity at 1 µM: 100%
[9]; LYN, read-out: inhibitory activity
  inhibition at 1 µM: > 70%
[9]; read-out: % Residual Activity
  remaining activity at 1 µM: 23%
[10]
  remaining activity at 1 µM: 82%
[11]
  remaining activity at 1 µM: 97%
[12]
  remaining activity at 1 µM: 90%
[13]
  remaining activity at 1 µM: 74%
[14]
  remaining activity at 1 µM: 83%
[15]
  remaining activity at 1 µM: 102%
[16]
  remaining activity at 1 µM: 103%
[17]
  remaining activity at 1 µM: 91%
[18]
  remaining activity at 1 µM: 90%
[19]
  remaining activity at 1 µM: 85%
[20]
  remaining activity at 1 µM: 80%
[21]; K562, 24 h
  GI50: 12.4 ± 2.16 µM
[21]; K562, 48 h
  GI50: 8.43 ± 0.37 µM
[21]; K562, 72 h
  GI50: 7.36 ± 0.24 µM
[22]; 5 μM
  G2-M cells: 31.15%
[22]; 10 µM
  G2-M cells: 40.70%
[22]; 10 µM, time course
  time of maximum accumulation in the G2/M phase: 16 h
[22]; 20 μM
  G2-M cells: 46.32%
[23]
  G2-M cells: 46.23%
[24]
  cell-cycle arrest: induced G2/M cell-cycle arrest
[25]
  G2-M cells: 55.25%
[26]
  G2-M cells: 36.61%

From article PMC9954146, “Anti-Leukaemic Activity of Rilpivirine Is Mediated by Aurora A Kinase Inhibition” (Cancers, 2023)
